Laboratory results taken from patent EP4692080A1, “PREPARATION METHOD FOR SALT FORM AND CRYSTAL FORM OF 2,6-PIPERIDINEDIONE COMPOUND AND USE THEREOF” (priority 2023, dated 2024).
Where a name gives a salt, the structure may show the parent alone.

Assays:
[1] = Pharmacokinetic evaluation in beagle dogs; type: in vivo, Male beagle dogs; details: fed
Procedure: Male beagle dogs were selected as the experimental animals in this study.
Beagle dogs (male, 7 to 10 kg, Beijing Mars Biotechnology Co., Ltd.).
A clear solution of the test compound was slowly injected intravenously into beagle dogs (fed) via the peripheral vein (vehicle: 5% DMSO/10% Solutol/85% H2O), or administered intragastrically to beagle dogs (fed). For intravenous administration, 0.5 mL of blood was collected from the peripheral vein at 0.083, 0.25, 0.5, 1, 2, 4, 6, 8, and 24 h after administration, placed in EDTA-2K anticoagulant tubes, and centrifuged at 3200 g for 10 minutes at 2 to 8°C to separate the supernatant. For intragastric administration, 0.5 mL of blood was collected from the peripheral vein at 0.083, 0.25, 0.5, 1, 2, 4, 6, 8, and 24 h after administration, placed in EDTA-2K anticoagulant tubes, and centrifuged at 3200 g for 10 minutes at 2 to 8°C to separate the supernatant. Plasma drug concentrations were determined by the LC-MS/MS method, and relevant pharmacokinetic parameters were calculated using Phoenix WinNonlin 6.3 pharmacokinetic software with non-compartmental model linear-log trapezoidal method.

[2] = molecular target: T1, IKZF1 (Homo sapiens, UniProt Q13422+Q96SW2); assay: In cell western analysis of IKZF1 protein expression level in MM.1S cells; type: cell-based; details: MM1.S, read-out: Maximum Degradation Rate Dmax
T1 construct: expression levels of IKZF1 and IKZF3 proteins in MM.1S cells; host or cells: MM.1S cells
Procedure: (§1) Objective: The experiment was conducted to evaluate the degradation effects of the compound of formula (I) on IKZF1 and IKZF3 proteins in MM.1S cells by detecting their impact on the expression levels of IKZF1 and IKZF3 proteins in MM.1S cells.
(§2) • Cell line: MM.1S cell (obtained from ATCC; Cat. No. CRL-2974) • Negative control: 0.1% DMSO Table 10. Reagents and consumables
(§3) • 1) MM.1S cells in the logarithmic growth phase were seeded into a 96-well plate at 1.2×10^5 cells per well and cultured overnight. • 2) On the second day, drug treatment was initiated with a starting concentration of 300 nM, followed by a 3-fold dilution in triplicate wells, with 10 concentration gradients (containing DMSO), and incubated for 24 hours in a culture incubator. • 3) The mixture was centrifuged, and the cell supernatant was carefully removed. […]
(§4) GraphPad Prism 6 software was utilized to fit the curve with the inhibition rate data, and the DC50 value was calculated.

[3] = Pharmacokinetic evaluation in mice; type: in vivo, C57BL/6 or C57 male mice
Text: C57BL/6 or C57 male mice were selected as the test animals for this study. The LC/MS/MS method was employed to quantitatively determine the plasma drug concentrations at various time points after intravenous injection or intragastric administration of the test compound, aiming to evaluate the pharmacokinetic characteristics of the compound of the present disclosure in mice.
C57BL/6 or C57 mice (male, 20 to 30g, 7 to 10 weeks old, Beijing Vital River).
A clear solution of the test compound was injected intravenously into the tail vein of C57BL/6 mice (fasted overnight) (vehicle: 10% DMSO/10% solutol/80% H2O), or administered intragastrically to C57 mice (fed). […] The mixture was thoroughly vortexed and mixed, and centrifuged at 6000 g for 3 minutes at 2 to 8°C. […] The mixture was thoroughly vortexed and mixed, and centrifuged at 6000 g for 3 minutes at 2 to 8°C. Plasma drug concentrations were determined by the LC-MS/MS method, and relevant pharmacokinetic parameters were calculated using Phoenix WinNonlin 8.2.0 pharmacokinetic software with non-compartmental model linear-log trapezoidal method.

[4] = molecular target: T2, IKZF3 (Homo sapiens, UniProt Q96SW2+Q9UKT9); assay: In cell western analysis of IKZF3 protein expression level in MM.1S cells; type: cell-based; details: MM1.S, read-out: Maximum Degradation Rate Dmax
T2 construct: expression levels of IKZF1 and IKZF3 proteins in MM.1S cells; host or cells: MM.1S cells
Procedure: as §1, §2, §3, §4

[5] = molecular target: T3, IRAK4 (Homo sapiens, UniProt Q9NWZ3); assay: Target protein degradation in K562 IRAK4-HiBiT cells (Nano-Glo HiBiT assay); type: cell-based; details: K562, read-out: Maximum Degradation Rate
T3 construct: expressed in transfected cells; host or cells: K562 IRAK4-HiBiT cells
T3 sequence (Q9NWZ3 1-460): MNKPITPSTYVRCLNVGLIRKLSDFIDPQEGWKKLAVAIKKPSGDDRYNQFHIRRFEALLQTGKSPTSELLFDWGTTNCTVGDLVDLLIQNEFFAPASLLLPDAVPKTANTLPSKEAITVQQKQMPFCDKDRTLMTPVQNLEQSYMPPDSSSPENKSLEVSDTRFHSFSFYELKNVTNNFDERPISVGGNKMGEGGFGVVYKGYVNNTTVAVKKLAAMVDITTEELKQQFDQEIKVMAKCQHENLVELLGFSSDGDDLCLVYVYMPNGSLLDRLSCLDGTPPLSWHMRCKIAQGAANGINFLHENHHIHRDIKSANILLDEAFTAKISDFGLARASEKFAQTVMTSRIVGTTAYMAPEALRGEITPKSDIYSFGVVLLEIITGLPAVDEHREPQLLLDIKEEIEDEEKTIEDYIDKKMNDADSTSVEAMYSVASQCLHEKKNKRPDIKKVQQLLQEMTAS
Procedure: Objective: In this experiment, the degradation effect of the compound of formula (I) on the target protein IRAK4 in K562 IRAK4-HiBiT cells was detected.
• Cells: K562 IRAK4-HiBiT cells • Culture medium: RPMI 1640 + 10% fetal bovine serum + 2 mM glutamine + 1 mM sodium pyruvate + penicillin/streptomycin • Positive control: 1000 nM; negative control: 0.1% DMSO Table 7. Reagents and consumables […]
• (1) The cell culture medium was discarded, and the cells were washed once with DPBS, digested with trypsin, and counted to prepare a cell suspension of […]. • (2) 25 µL/well of cell suspension was added to the assay plate containing the test compound using Multidrop Combi at medium speed. • (3) The assay plate containing cells was returned to an incubator with 5% CO2 at 37°C and incubated for 16 to 18 hours.
• (1) 25 µL/well of assay reagent (NanoGlo lysis buffer + substrate + LgBit protein) was added to the assay plate using Multidrop Combi at high speed, and the plate was shaken for 10 minutes. • (2) The plate was centrifuged at 2000 rpm for 1 minute to remove air bubbles. • (3) The plate was read on Envision using US Luminescence detection method. […]

[6] = Intragastric Administration (5 mg/kg)
[7] = Intragastric Administration (10 mg/kg) (fed)

T1 sequence (Q13422 whole entry): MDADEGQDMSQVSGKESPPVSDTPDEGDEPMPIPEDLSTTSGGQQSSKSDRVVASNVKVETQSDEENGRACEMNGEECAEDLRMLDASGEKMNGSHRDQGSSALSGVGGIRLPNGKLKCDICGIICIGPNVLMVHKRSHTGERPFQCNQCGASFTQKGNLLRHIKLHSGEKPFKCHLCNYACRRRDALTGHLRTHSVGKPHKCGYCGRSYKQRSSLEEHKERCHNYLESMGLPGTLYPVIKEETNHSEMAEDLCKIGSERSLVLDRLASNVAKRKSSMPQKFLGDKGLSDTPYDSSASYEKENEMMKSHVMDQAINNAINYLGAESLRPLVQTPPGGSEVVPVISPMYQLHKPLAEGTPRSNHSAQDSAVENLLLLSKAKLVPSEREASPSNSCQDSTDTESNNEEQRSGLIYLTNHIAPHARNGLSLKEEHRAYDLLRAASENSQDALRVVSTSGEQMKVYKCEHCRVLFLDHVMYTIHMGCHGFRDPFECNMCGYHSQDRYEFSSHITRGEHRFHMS
T1 sequence (Q96SW2 whole entry): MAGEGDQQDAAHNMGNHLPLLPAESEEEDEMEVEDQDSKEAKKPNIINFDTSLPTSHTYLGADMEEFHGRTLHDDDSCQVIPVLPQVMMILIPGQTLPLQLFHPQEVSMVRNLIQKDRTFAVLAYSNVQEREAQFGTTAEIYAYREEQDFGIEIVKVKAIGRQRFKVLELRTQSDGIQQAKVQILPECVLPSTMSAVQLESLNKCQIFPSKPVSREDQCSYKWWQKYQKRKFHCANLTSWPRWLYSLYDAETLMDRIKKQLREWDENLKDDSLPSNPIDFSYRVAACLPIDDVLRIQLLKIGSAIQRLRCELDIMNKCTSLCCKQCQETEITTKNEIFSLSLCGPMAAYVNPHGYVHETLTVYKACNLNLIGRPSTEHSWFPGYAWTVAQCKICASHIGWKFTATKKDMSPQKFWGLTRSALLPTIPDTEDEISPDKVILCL
T1 sequence (Q16531 whole entry partner): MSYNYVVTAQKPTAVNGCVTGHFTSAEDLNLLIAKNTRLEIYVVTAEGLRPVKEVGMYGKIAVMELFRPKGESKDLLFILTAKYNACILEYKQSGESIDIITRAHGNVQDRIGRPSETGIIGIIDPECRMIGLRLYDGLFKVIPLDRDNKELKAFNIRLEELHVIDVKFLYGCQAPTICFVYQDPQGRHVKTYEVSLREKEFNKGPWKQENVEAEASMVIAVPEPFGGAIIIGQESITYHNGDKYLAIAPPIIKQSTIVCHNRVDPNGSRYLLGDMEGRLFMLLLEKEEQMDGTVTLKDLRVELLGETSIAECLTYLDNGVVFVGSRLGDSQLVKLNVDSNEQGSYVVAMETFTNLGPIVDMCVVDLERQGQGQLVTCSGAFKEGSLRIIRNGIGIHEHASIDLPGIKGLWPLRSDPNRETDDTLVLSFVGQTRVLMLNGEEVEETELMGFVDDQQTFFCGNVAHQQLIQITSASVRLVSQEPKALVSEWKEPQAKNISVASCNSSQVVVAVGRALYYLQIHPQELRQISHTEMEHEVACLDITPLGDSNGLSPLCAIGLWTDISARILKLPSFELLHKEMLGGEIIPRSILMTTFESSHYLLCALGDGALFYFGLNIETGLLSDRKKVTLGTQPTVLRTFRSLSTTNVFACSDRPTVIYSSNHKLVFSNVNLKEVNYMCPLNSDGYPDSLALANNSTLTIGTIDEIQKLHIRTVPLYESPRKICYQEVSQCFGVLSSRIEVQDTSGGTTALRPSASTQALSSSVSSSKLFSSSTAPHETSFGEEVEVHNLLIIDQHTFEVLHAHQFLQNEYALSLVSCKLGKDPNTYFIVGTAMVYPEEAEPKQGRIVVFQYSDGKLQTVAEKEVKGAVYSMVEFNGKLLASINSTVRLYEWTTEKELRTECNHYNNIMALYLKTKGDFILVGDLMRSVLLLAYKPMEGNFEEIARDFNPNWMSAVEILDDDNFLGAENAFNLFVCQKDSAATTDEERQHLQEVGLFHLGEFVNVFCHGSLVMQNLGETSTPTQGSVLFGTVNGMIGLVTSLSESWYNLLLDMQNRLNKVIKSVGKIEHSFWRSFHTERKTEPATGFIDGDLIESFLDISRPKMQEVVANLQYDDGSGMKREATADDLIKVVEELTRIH
T2 sequence (Q9UKT9 whole entry): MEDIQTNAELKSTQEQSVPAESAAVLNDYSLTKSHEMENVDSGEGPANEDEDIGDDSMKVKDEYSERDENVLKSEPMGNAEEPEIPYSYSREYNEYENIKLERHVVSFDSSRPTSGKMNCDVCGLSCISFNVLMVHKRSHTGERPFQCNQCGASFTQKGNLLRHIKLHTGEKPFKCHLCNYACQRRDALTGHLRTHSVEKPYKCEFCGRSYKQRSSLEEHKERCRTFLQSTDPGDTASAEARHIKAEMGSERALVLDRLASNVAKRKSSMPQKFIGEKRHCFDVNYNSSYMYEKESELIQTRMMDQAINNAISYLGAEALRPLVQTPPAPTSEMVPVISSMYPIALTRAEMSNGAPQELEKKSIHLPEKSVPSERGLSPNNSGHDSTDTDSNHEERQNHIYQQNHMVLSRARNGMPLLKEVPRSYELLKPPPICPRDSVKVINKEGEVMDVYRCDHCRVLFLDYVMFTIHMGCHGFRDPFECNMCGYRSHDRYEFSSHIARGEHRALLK
T2 sequence (Q96SW2 whole entry): as the sequence (Q96SW2 whole entry) above
T2 sequence (Q16531 whole entry partner): as the sequence (Q16531 whole entry partner) above

## O=C1CCC(c2noc3ccc4c(NC(=O)CN5CCN(C[C@H]6CC[C@H](n7cc(NC(=O)c8coc(-c9ccnc(NCC%10CC%10)c9)n8)c(C(F)F)n7)CC6)CC5)cccc4c23)C(=O)N1 (stereo partly drawn) [Hydrochloride of Compound of Formula (I)]
[1]; [6]
  Area Under the Drug-Time Curve (0-inf): 3.20 µM·h
  Peak Concentration: 0.41 µM
[1]; Intravenous Injection (0.5 mg/kg)
  Area Under the Drug-Time Curve (0-inf): 0.44 µM·h
[2]
  Dmax: 72.3%
[3]; [7]
  Area Under the Drug-Time Curve (0-inf): 4.47 µM·h
  Peak Concentration: 0.54 µM
[3]; Intravenous Injection (2 mg/kg) (fasted)
  Area Under the Drug-Time Curve (0-inf): 5.40 µM·h
[4]
  Dmax: 73.5%
[5]
  Dmax: 108%
